Among the data in patent US11208400B2, “Substituted 6-(1H-pyrazol-1-yl)pyrimidin-4-amine derivatives and uses thereof” (Bayer Aktiengesellschaft, priority 2016, dated 2021) are IC50 values, retold here.

Structures are written as SMILES. pIC50: −log10 of the molar value.

The term pIC50 denotes −log10 of the IC50, conventionally taken in molar units. A high value points to a small IC50.

This test addresses T1, human Npt2a (Homo sapiens, UniProt Q06495).
T1 construct: expressed in transfected cells
T1 sequence (Q06495 1-639): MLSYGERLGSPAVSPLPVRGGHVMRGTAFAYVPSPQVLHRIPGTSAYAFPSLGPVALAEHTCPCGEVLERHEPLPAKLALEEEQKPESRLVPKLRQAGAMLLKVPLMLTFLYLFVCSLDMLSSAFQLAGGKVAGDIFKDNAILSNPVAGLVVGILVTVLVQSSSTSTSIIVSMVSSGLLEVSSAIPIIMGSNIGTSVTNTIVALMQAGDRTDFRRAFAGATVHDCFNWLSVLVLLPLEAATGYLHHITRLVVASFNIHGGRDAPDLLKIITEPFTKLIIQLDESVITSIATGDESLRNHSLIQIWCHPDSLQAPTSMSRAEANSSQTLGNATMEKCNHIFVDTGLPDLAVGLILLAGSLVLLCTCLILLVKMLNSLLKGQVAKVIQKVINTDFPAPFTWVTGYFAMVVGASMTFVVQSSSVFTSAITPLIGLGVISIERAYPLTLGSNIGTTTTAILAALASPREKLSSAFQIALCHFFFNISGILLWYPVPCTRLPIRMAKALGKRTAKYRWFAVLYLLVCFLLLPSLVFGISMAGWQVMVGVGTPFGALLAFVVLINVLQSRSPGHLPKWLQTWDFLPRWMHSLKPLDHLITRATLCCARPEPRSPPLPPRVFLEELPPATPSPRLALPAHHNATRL
Description: Npt2a activity cell based assay, membrane potential dye, CHO T-REx hNpt2a cells. The settings on record: doxycycline-induced, depolarization by sodium phosphate influx, average or median values if tested more than once. In short, it runs like this: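 Cells were doxycycline-induced CHO T-REx hNpt2a, dye-loaded and pretreated 5 min at RT with 1 nM–50 μM compound in Na-free pH 7.4 buffer. IC50 was fit to the post/pre-trigger fluorescence ratio.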
In turn, `Cc1cc(C)n(-c2cc(Nc3c(C)c(-c4ccc(C#N)cc4)nn3C)ncn2)n1` [Example 197, 4-(5-{[6-(3,5-dimethyl-1H-pyrazol-1-yl)pyrimidin-4-yl]amino}-1,4-dimethyl-1H-pyrazol-3-yl)benzonitrile] had a pIC50 of 7.55.
`CCc1c(Nc2cc(-n3nc(C)c(C(=O)N4CCCC4C)c3C)ncn2)nn(C)c1-c1ccc(F)cc1` (single isomer, unassigned) [Example 107, [1-ent-(6-{[4-ethyl-5-(4-fluorophenyl)-1-methyl-1H-pyrazol-3-yl]amino}pyrimidin-4-yl)-3,5-dimethyl-1H-pyrazol-4-yl](2-methylpyrrolidin-1-yl)methanone] had a negative logarithm of the IC50 (pIC50) of 6.53.
Compound `Cc1nn(-c2cc(Nc3c(C)c(-c4ccc(F)cc4)nn3CC3CC3)ncn2)c(C)c1C(O)C(F)(F)F` (single isomer, unassigned) [Example 376, 1-[1-(6-{[1-(cyclopropylmethyl)-3-(4-fluorophenyl)-4-methyl-1H-pyrazol-5-yl]amino}pyrimidin-4-yl)-3,5-dimethyl-1H-pyrazol-4-yl]-2,2,2-trifluoroethanol] showed a pIC50 of 8.10.
The value for `Cc1cc(C(F)F)n(-c2cc(Nc3nn(C)c(-c4ccc(F)cc4)c3C)ncn2)n1` [Example 69, 6-[5-(difluoromethyl)-3-methyl-1H-pyrazol-1-yl]-N-[5-(4-fluorophenyl)-1,4-dimethyl-1H-pyrazol-3-yl]pyrimidin-4-amine] was 8.08; that for `COc1c(C)nn(-c2cc(Nc3nn(C)c(-c4ccc(C#N)cc4)c3C)ncn2)c1C` [Example 435, 4-(3-{[6-(4-methoxy-3,5-dimethyl-1H-pyrazol-1-yl)pyrimidin-4-yl]amino}-1,4-dimethyl-1H-pyrazol-5-yl)benzonitrile] was 8.30; that for `CNc1ccc(-c2nn(CC3CC3)c(Nc3cc(-n4nc(C)c(C(F)(F)F)c4C)ncn3)c2C)cc1` [Example 488, N-{1-(cyclopropylmethyl)-4-methyl-3-[4-(methylamino)phenyl]-1H-pyrazol-5-yl}-6-[3,5-dimethyl-4-(trifluoromethyl)-1H-pyrazol-1-yl]pyrimidin-4-amine] was 7.19.
In turn, `Cc1cc(C)n(-c2cc(Nc3c(Cl)c(-c4ccc(F)cc4)nn3C)ncn2)n1` [Example 90, N-[4-chloro-3-(4-fluorophenyl)-1-methyl-1H-pyrazol-5-yl]-6-(3,5-dimethyl-1H-pyrazol-1-yl)pyrimidin-4-amine] had a negative-log IC50 (pIC50) of 6.88.
Regarding `Cc1nn(-c2cc(Nc3c(C)nn(-c4ccc(C#N)cc4)c3C)ncn2)c(C)c1Cl` [Example 208, 4-(4-{[6-(4-chloro-3,5-dimethyl-1H-pyrazol-1-yl)pyrimidin-4-yl]amino}-3,5-dimethyl-1H-pyrazol-1-yl)benzonitrile], the pIC50 is 6.33.
`Cc1nn(-c2cc(Nc3c(C)c(-c4ccc(C#N)cc4)nn3C)ncn2)c(C(F)F)c1Cl` [Example 241, 4-[5-({6-[4-chloro-5-(difluoromethyl)-3-methyl-1H-pyrazol-1-yl]pyrimidin-4-yl}amino)-1,4-dimethyl-1H-pyrazol-3-yl]benzonitrile]: the negative logarithm of the IC50 (pIC50) is 8.15.
As for `Cc1cc(C)n(-c2cc(Nc3c(C)c(-c4ccc(C#N)cc4)nn3CCC3CC3)ncn2)n1` [Example 198, 4-[1-(2-cyclopropylethyl)-5-{[6-(3,5-dimethyl-1H-pyrazol-1-yl)pyrimidin-4-yl]amino}-4-methyl-1H-pyrazol-3-yl]benzonitrile], the pIC50 was 7.92.
Regarding `Cc1nn(-c2cc(Nc3c(C)c(-c4ccc(C#N)cc4)nn3C)ncn2)c(C)c1C(F)(F)F` [Example 547, 4-[5-({6-[3,5-dimethyl-4-(trifluoromethyl)-1H-pyrazol-1-yl]pyrimidin-4-yl}amino)-1,4-dimethyl-1H-pyrazol-3-yl]benzonitrile], the negative logarithm of the IC50 (pIC50) is 7.54.
The result for `COc1c(C)nn(-c2cc(Nc3nn(C)c(-c4ccc(F)cc4)c3OC(F)F)ncn2)c1C` [Example 470, N-[4-(difluoromethoxy)-5-(4-fluorophenyl)-1-methyl-1H-pyrazol-3-yl]-6-(4-methoxy-3,5-dimethyl-1H-pyrazol-1-yl)pyrimidin-4-amine] reads 8.52; that for `COc1c(C)nn(-c2cc(Nc3nn(C)c(-c4ccc(F)cn4)c3C)ncn2)c1C` [Example 461, N-[5-(5-fluoropyridin-2-yl)-1,4-dimethyl-1H-pyrazol-3-yl]-6-(4-methoxy-3,5-dimethyl-1H-pyrazol-1-yl)pyrimidin-4-amine], 6.77; that for `Cc1cc(C(C)(C)O)n(-c2cc(Nc3c(C)c(-c4ccc(OC(F)(F)F)cc4)nn3CC3CC3)ncn2)n1` [Example 291, 2-{1-[6-({1-(cyclopropylmethyl)-4-methyl-3-[4-(trifluoromethoxy)phenyl]-1H-pyrazol-5-yl}amino)pyrimidin-4-yl]-3-methyl-1H-pyrazol-5-yl}propan-2-ol], 6.96.
`CCOC(=O)c1c(C)nn(-c2cc(Nc3nn(C)c(-c4ccc(F)cc4)c3CC)ncn2)c1C` [Example 40, ethyl 1-(6-{[4-ethyl-5-(4-fluorophenyl)-1-methyl-1H-pyrazol-3-yl]amino}pyrimidin-4-yl)-3,5-dimethyl-1H-pyrazole-4-carboxylate] gave a pIC50 of 5.56.
Compound `Cc1nn(-c2cc(Nc3c(C)c(-c4ccc(C(F)F)cc4)nn3CC3CC3)ncn2)c(C)c1C(O)C1CC1` (racemic) [Example 460, (±)-cyclopropyl {1-[6-({1-(cyclopropylmethyl)-3-[4-(difluoromethyl)phenyl]-4-methyl-1H-pyrazol-5-yl}amino)pyrimidin-4-yl]-3,5-dimethyl-1H-pyrazol-4-yl}methanol] gave a pIC50 of 7.01.
On to `COc1c(-c2ccc(C#N)cc2)nn(C)c1Nc1cc(-n2nc(C)c(OC)c2C)ncn1` [Example 462, 4-(4-methoxy-5-{[6-(4-methoxy-3,5-dimethyl-1H-pyrazol-1-yl)pyrimidin-4-yl]amino}-1-methyl-1H-pyrazol-3-yl)benzonitrile], for which the negative logarithm of the IC50 (pIC50) was 7.60.
`CCOC(=O)Cc1c(C)nn(-c2cc(Nc3nn(C)c(-c4ccc(F)cc4)c3CC)ncn2)c1C` [Example 87, ethyl [1-(6-{[4-ethyl-5-(4-fluorophenyl)-1-methyl-1H-pyrazol-3-yl]amino}pyrimidin-4-yl)-3,5-dimethyl-1H-pyrazol-4-yl]acetate] showed a negative-log IC50 (pIC50) of 7.49.
The value for `Cc1nn(-c2cc(Nc3c(C)c(-c4ccc(F)cc4)nn3CC3CC3)ncn2)c(C)c1Cl` [Example 175, 6-(4-chloro-3,5-dimethyl-1H-pyrazol-1-yl)-N-[1-(cyclopropylmethyl)-3-(4-fluorophenyl)-4-methyl-1H-pyrazol-5-yl]pyrimidin-4-amine] was 7.85; that for `Cc1cc(C)n(-c2cc(Nc3c(C)c(-c4ccc(F)cc4)nn3CC(O)C3CC3)ncn2)n1` (racemic) [Example 369, (±)-1-cyclopropyl-2-[5-{[6-(3,5-dimethyl-1H-pyrazol-1-yl)pyrimidin-4-yl]amino}-3-(4-fluorophenyl)-4-methyl-1H-pyrazol-1-yl]ethanol] was 6.38.
Take `CCOC(=O)c1c(C)nn(-c2cc(Nc3nn(CC4CC4)c(-c4ccc(F)cc4)c3Cl)ncn2)c1C` [Example 153, ethyl 1-(6-{[4-chloro-1-(cyclopropylmethyl)-5-(4-fluorophenyl)-1H-pyrazol-3-yl]amino}pyrimidin-4-yl)-3,5-dimethyl-1H-pyrazole-4-carboxylate]: the negative-log IC50 (pIC50) was 6.39.
The compound `Cc1nn(-c2cc(Nc3c(C)c(-c4ccncc4)nn3CC3CC3)ncn2)c(C)c1Cl` [Example 351, 6-(4-chloro-3,5-dimethyl-1H-pyrazol-1-yl)-N-[1-(cyclopropylmethyl)-4-methyl-3-(pyridin-4-yl)-1H-pyrazol-5-yl]pyrimidin-4-amine] showed a pIC50 of 7.19.
Compound `CCOC(=O)c1c(C)nn(-c2cc(Nc3c(C)c(-c4ccc(C#N)cc4)nn3CC3CC3)ncn2)c1C` [Example 149, ethyl 1-(6-{[3-(4-cyanophenyl)-1-(cyclopropylmethyl)-4-methyl-1H-pyrazol-5-yl]amino}pyrimidin-4-yl)-3,5-dimethyl-1H-pyrazole-4-carboxylate] showed a pIC50 of 8.15.
`Cc1nn(-c2cc(Nc3c(C)c(-c4ccc(F)cc4)nn3CC3CC3)ncn2)c(C)c1C(O)C1CC1` (single isomer, unassigned) [Example 419, cyclopropyl[1-(6-{[1-(cyclopropylmethyl)-3-(4-fluorophenyl)-4-methyl-1H-pyrazol-5-yl]amino}pyrimidin-4-yl)-3,5-dimethyl-1H-pyrazol-4-yl]methanol] showed a pIC50 of 7.85.
The compound `COc1c(-c2ccc(C#N)cc2)nn(CC2CC2)c1Nc1cc(-n2nc(C)c(C(C)O)c2C)ncn1` (single isomer, unassigned) [Example 332, 4-{1-(cyclopropylmethyl)-5-[(6-{4-[1-hydroxyethyl]-3,5-dimethyl-1H-pyrazol-1-yl}pyrimidin-4-yl)amino]-4-methoxy-1H-pyrazol-3-yl}benzonitrile] showed a pIC50 of 5.72.
